For one test, the system named is protein kinase PK-II. In words: Protein kinase inhibition assay, PK-II fraction (protamine-sulfate, [γ-33P]ATP). Format: biochemical, Neurospora crassa. As to conditions: 100 μM in the enzyme assay mixture; protamine-sulfate as substrate; relative to DMSO control (=0% inhibition). Here is the method: (§1) Mycelium from a stock culture of the wild-type strain 74-OR8-1, obtained from the American Type Culture Collection (ATCC 18889), is grown as inoculum in Petri dishes (d=9 cm) at 24° C. in the dark for 14 days (medium: Biomalt 10 g, Difco dry yeast extract 4 g, glucose 4 g and agar 20 g, in 1 l water). […]
(§2) Protein kinase activity is assayed in a reaction mixture containing in a final volume of […], 20 mM Tris-HCl (pH 7.4), 20 mg protamine-sulfate, 10 mM Mg(NO3)2, 10 mM ATP (0.2 mCi [g-^33P]ATP), 1 mM NaN3, 0.04 mM okadaic acid, […] of protein kinase. After 20 minutes incubation at 32° C., aliquots of […] are analyzed for substrate phosphorylation using P81 chromatography paper (20 mm×20 mm; Whatman, Maidstone, UK) according to the method described by J. J. Witt and R. Roskoski (Anal. Biochem., 66, 253-258, 1975). After washing the unbounded radioactivity with 75 mM phosphoric acid (3×15 min) and ethanol 94% (1×5 min) the radioactivity in the chromatography paper is counted in 5 ml ULTIMA GOLD LSC-cocktail (Packard Instrument, Zürich, Switzerland) using a Tri-Carb 2500 TR Packard Instrument. […]

For another test, the system named is protein kinase PK-III. In words: Protein kinase inhibition assay, PK-III fraction (protamine-sulfate, [γ-33P]ATP). Format: biochemical, Neurospora crassa. As to conditions: 100 μM in the enzyme assay mixture; protamine-sulfate as substrate; relative to DMSO control (=0% inhibition). Here is the method: as §1, §2

As for `N#Cc1c[nH]cc1-c1cccc(Cl)c1Cl` [fenpiclonil, 4-(2,3-dichlorophenyl)pyrrole-3-carbonitrile], in the test on protein kinase PK-II, the “inhibition of protein kinase PK-II” value is on record as 67%. Besides, the “inhibition of protein kinase PK-III” value in the test with protein kinase PK-III worked out at 90%.

The record behind these values is patent US6399319B1, “Protein kinase assay as a method for identification of fungicides” (Syngenta Crop Protection, Inc., priority 1996, dated 2002).
